Assay results: patent US11046680B1, “Heteroaryl-substituted triazoles as APJ receptor agonists” (priority 2016, dated 2021)

Target: human APJ receptor (Homo sapiens (Human), UniProt P35414)
Test: biochemical
Type: biochemical
Details: [35S]GTPγS binding, CHO membranes expressing human APJ receptor; read-out: Activity hAPJ SPA EC50 IP
Outline: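 GTPγS binding on membranes from CHO cells stably expressing FLAG-tagged human APJ, with optimized GDP, MgCl2 and NaCl; incubated 90 min at RT before imaging read-out.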

Chain of human APJ receptor (P35414 whole entry): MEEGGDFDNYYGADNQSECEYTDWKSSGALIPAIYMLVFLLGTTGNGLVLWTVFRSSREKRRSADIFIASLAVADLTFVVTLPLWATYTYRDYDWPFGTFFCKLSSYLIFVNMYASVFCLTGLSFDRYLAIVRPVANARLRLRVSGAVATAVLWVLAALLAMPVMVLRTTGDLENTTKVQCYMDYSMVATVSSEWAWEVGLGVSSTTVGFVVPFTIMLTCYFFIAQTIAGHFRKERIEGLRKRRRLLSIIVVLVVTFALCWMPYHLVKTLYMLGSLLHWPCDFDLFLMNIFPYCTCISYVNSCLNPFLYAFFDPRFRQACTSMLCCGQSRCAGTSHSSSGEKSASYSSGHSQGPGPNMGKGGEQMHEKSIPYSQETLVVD

SMILES | EC50 [nM]
CNC(=O)n1ccc(-c2nnc(NS(=O)(=O)[C@@H](C)Cc3ncc(F)cn3)n2-c2c(OC)cccc2OC)n1 (single isomer, unassigned) [Example 73.0, (R)-3-(4-(2,6-dimethoxyphenyl)-5-(2-(5-fluoropyrimidin-2-yl)-1-methylethylsulfonamido)-4H-1,2,4-triazol-3-yl)-N-methyl-1H-pyrazole-1-carboxamide or (S)-3-(4-(2,6-dimethoxyphenyl)-5-(2-(5-fluoropyrimidin-2-yl)-1-methylethylsulfonamido)-4H-1,2,4-triazol-3-yl)-N-methyl-1H-pyrazole-1-carboxamide] | 29
COc1ccc(Cl)cc1-n1c(NS(=O)(=O)CCc2ccc(F)cc2)nnc1-c1cccs1 [Example 360.0, N-(4-(5-Chloro-2-methoxyphenyl)-5-(thiophen-2-yl)-4H-1,2,4-triazol-3-yl)-2-(4-fluorophenyl)ethanesulfonamide] | 194
COc1cccc(OC)c1-n1c(NS(=O)(=O)CCc2ccc(Cl)cc2)nnc1-c1csc(C)n1 [Example 149.0, 2-(4-chlorophenyl)-N-(4-(2,6-dimethoxyphenyl)-5-(2-methylthiazol-4-yl)-4H-1,2,4-triazol-3-yl)ethanesulfonamide] | 27
COc1cccc(OC)c1-n1c(NS(=O)(=O)[C@@H](C)[C@@H](OC(C)C)c2ncc(F)cn2)nnc1-c1cnn2c1CCC2 [Example 482.0, (1S,2S)-N-(5-(5,6-dihydro-4H-pyrrolo[1,2-b]pyrazol-3-yl)-4-(2,6-dimethoxyphenyl)-4H-1,2,4-triazol-3-yl)-1-(5-fluoropyrimidin-2-yl)-1-isopropoxypropane-2-sulfonamide] | 0.38
CC(C)O[C@@H](c1ncc(Cl)cn1)[C@H](C)S(=O)(=O)Nc1nnc(-c2ccn(C)n2)n1C1CC1 [Example 532.0, (1S,2S)-1-(5-chloro-2-pyrimidinyl)-N-(4-cyclopropyl-5-(1-methyl-1H-pyrazol-3-yl)-4H-1,2,4-triazol-3-yl)-1-(2-propanyloxy)-2-propanesulfonamide] | 22
COc1cccc(OC)c1-n1c(NS(=O)(=O)[C@@H](C)[C@H](C)c2ncc(F)cn2)nnc1-c1cnn(C)c1 [Example 212.0, (2S,3R)-N-(4-(2,6-dimethoxyphenyl)-5-(1-methyl-1H-pyrazol-4-yl)-4H-1,2,4-triazol-3-yl)-3-(5-fluoro-2-pyrimidinyl)-2-butanesulfonamide] | 0.42
COc1cccc(OC)c1-n1c(NS(=O)(=O)[C@H](C)[C@@H](OC)c2ccc(C#N)cc2C#N)nnc1-c1ccn(C)n1 (single isomer, unassigned) [Example 265.0, (1S,2R)-1-(2,4-dicyanophenyl)-N-(4-(2,6-dimethoxyphenyl)-5-(1-methyl-1H-pyrazol-3-yl)-4H-1,2,4-triazol-3-yl)-1-methoxy-2-propanesulfonamide or (1R,2S)-1-(2,4-dicyanophenyl)-N-(4-(2,6-dimethoxyphenyl)-5-(1-methyl-1H-pyrazol-3-yl)-4H-1,2,4-triazol-3-yl)-1-methoxy-2-propanesulfonamide] | 70
COc1cccc(OC)c1-n1c(NS(=O)(=O)[C@H](C)[C@@H](OC)c2ccc(C#N)cc2C#N)nnc1-c1ccn(C)n1 (single isomer, unassigned) [Example 266.0, (1S,2R)-1-(2,4-dicyanophenyl)-N-(4-(2,6-dimethoxyphenyl)-5-(1-methyl-1H-pyrazol-3-yl)-4H-1,2,4-triazol-3-yl)-1-methoxy-2-propanesulfonamide or (1R,2S)-1-(2,4-dicyanophenyl)-N-(4-(2,6-dimethoxyphenyl)-5-(1-methyl-H-pyrazol-3-yl)-4H-1,2,4-triazol-3-yl)-1-methoxy-2-propanesulfonamide] | 0.4
COc1ccccc1-n1c(NS(=O)(=O)CCc2ccc(F)cc2)nnc1-c1cccs1 [Example 359.0, 2-(4-Fluorophenyl)-N-(4-(2-methoxyphenyl)-5-(thiophen-2-yl)-4H-1,2,4-triazol-3-yl)ethanesulfonamide] | 143
CCn1ccc(-c2nnc(NS(=O)(=O)[C@@H](C)[C@H](OC)c3ncc(Cl)cn3)n2-c2c(OC)cccc2OC)n1 [Example 393.0, (1R,2S)-1-(5-chloropyrimidin-2-yl)-N-(4-(2,6-dimethoxyphenyl)-5-(1-ethyl-1H-pyrazol-3-yl)-4H-1,2,4-triazol-3-yl)-1-methoxypropane-2-sulfonamide] | 0.47
COc1cccc(OC)c1-n1c(NS(=O)(=O)[C@H](C)Cc2ncc(F)cn2)nnc1-c1nc(C(C)C)cs1 [Example 156.0] | 0.32
COCC1(n2c(NS(=O)(=O)[C@@H](C)[C@H](OC)c3ncc(Cl)cn3)nnc2-c2n[nH]c3c2CCC3)CCC1 [Example 489.0] | 1.3
COc1cnc([C@@H](C)[C@H](C)S(=O)(=O)Nc2nnc(-c3ccn(C)n3)n2-c2c(F)cccc2F)cn1 [Example 230.0, (2S,3R)-N-(4-(2,6-difluorophenyl)-5-(1-methyl-1H-pyrazol-3-yl)-4H-1,2,4-triazol-3-yl)-3-(5-methoxy-2-pyrazinyl)-2-butanesulfonamide] | 25
COc1ccc([C@@H](OC)[C@H](C)S(=O)(=O)Nc2nnc(-c3ccn(C)n3)n2-c2c(OC)ncnc2OC)nc1 [Example 455.0, (1R,2S)-N-(4-(4,6-dimethoxy-5-pyrimidinyl)-5-(1-methyl-1H-pyrazol-3-yl)-4H-1,2,4-triazol-3-yl)-1-methoxy-1-(5-methoxy-2-pyridinyl)-2-propanesulfonamide] | 5.7
Cc1cnc([C@@H](C)[C@H](C)S(=O)(=O)Nc2nnc(-c3cnn4c3CCC4)n2-c2c(F)cccc2F)nc1 [Example 483.0, (2S,3R)-N-(4-(2,6-difluorophenyl)-5-(5,6-dihydro-4H-pyrrolo[1,2-b]pyrazol-3-yl)-4H-1,2,4-triazol-3-yl)-3-(5-methylpyrimidin-2-yl)butane-2-sulfonamide] | 5.4
COc1cccc(OC)c1-n1c(NS(=O)(=O)[C@@H](C)[C@H](OC)c2ncc(Cl)cn2)nnc1-c1ncnc2cc[nH]c12 [Example 434.0, (1R,2S)-1-(5-chloropyrimidin-2-yl)-N-(4-(2,6-dimethoxyphenyl)-5-(5H-pyrrolo[3,2-d]pyrimidin-4-yl)-4H-1,2,4-triazol-3-yl)-1-methoxypropane-2-sulfonamide] | 8.6
COc1cccc(OC)c1-n1c(NS(=O)(=O)[C@@H](C)[C@H](OC)c2ncc(C)cn2)nnc1-c1cscn1 [Example 342.0, (1R,2S)-N-(4-(2,6-dimethoxyphenyl)-5-(1,3-thiazol-4-yl)-4H-1,2,4-triazol-3-yl)-1-methoxy-1-(5-methyl-2-pyrimidinyl)-2-propanesulfonamide] | 0.5
COc1cccc(OC)c1-n1c(NS(=O)(=O)CCc2ccc(Cl)cc2)nnc1-c1cocn1 [Example 139.0, 2-(4-chlorophenyl)-N-(4-(2,6-dimethoxyphenyl)-5-(oxazol-4-yl)-4H-1,2,4-triazol-3-yl)ethanesulfonamide] | 118
COc1ncnc(OC)c1-n1c(NS(=O)(=O)[C@@H](C)[C@H](OC)c2ncc(C)cn2)nnc1-c1csc(C)n1 [Example 5.0, (1R,2S)-N-(4-(4,6-dimethoxypyrimidin-5-yl)-5-(2-methylthiazol-4-yl)-4H-1,2,4-triazol-3-yl)-1-methoxy-1-(5-methylpyrimidin-2-yl)propane-2-sulfonamide] | 4.1
COCC1(n2c(NS(=O)(=O)[C@@H](C)[C@H](OC)c3ncc(Cl)cn3)nnc2-c2cnn3ccccc23)CCC1 [Example 508.0] | 62
COc1cccc(OC)c1-n1c(NS(=O)(=O)[C@@H](C)[C@H](OC)c2cnc(C)cn2)nnc1-c1cc(C)[nH]n1 [Example 348.0, (1R,2S)-N-(4-(2,6-dimethoxyphenyl)-5-(5-methyl-1H-pyrazol-3-yl)-4H-1,2,4-triazol-3-yl)-1-methoxy-1-(5-methyl-2-pyrazinyl)-2-propanesulfonamide] | 4.3
COc1cnc([C@@H](OC)[C@H](C)S(=O)(=O)Nc2nnc(-c3ccn(C)n3)n2-c2c(OC)cccc2OC)cn1 (single isomer, unassigned) [Example 308.0, (1R,2S)-N-(4-(2,6-dimethoxyphenyl)-5-(1-methyl-1H-pyrazol-3-yl)-4H-1,2,4-triazol-3-yl)-1-methoxy-1-(5-methoxy-2-pyrazinyl)-2-propanesulfonamide or (1S,2R)-N-(4-(2,6-dimethoxyphenyl)-5-(1-methyl-1H-pyrazol-3-yl)-4H-1,2,4-triazol-3-yl)-1-methoxy-1-(5-methoxy-2-pyrazinyl)-2-propanesulfonamide] | 0.58
COc1cccc(OC)c1-n1c(NS(=O)(=O)[C@H](C)Cc2ncc(F)cn2)nnc1-c1nc(C2CC2)cs1 (single isomer, unassigned) [Example 159.0, (R)-N-(5-(4-cyclopropylthiazol-2-yl)-4-(2,6-dimethoxyphenyl)-4H-1,2,4-triazol-3-yl)-1-(5-fluoropyrimidin-2-yl)propane-2-sulfonamide or (S)-N-(5-(4-cyclopropylthiazol-2-yl)-4-(2,6-dimethoxyphenyl)-4H-1,2,4-triazol-3-yl)-1-(5-fluoropyrimidin-2-yl)propane-2-sulfonamide] | 0.61
COc1cccc(OC)c1-n1c(NS(=O)(=O)[C@@H](C)[C@H](OC)c2ncc(C)cn2)nnc1-c1ccn(C)n1 [Example 200.0, (1R,2S)-N-(4-(2,6-dimethoxyphenyl)-5-(1-methyl-1H-pyrazol-3-yl)-4H-1,2,4-triazol-3-yl)-1-methoxy-1-(5-methyl-2-pyrimidinyl)-2-propanesulfonamide] | 0.79
COc1cccc(OC)c1-n1c(NS(=O)(=O)[C@H](C)Cc2ncc(F)cn2)nnc1-c1nc(C(C)C)cs1 (single isomer, unassigned) [Example 158.0, (R)-N-(4-(2,6-dimethoxyphenyl)-5-(4-isopropylthiazol-2-yl)-4H-1,2,4-triazol-3-yl)-1-(5-fluoropyrimidin-2-yl)propane-2-sulfonamide or (S)-N-(4-(2,6-dimethoxyphenyl)-5-(4-isopropylthiazol-2-yl)-4H-1,2,4-triazol-3-yl)-1-(5-fluoropyrimidin-2-yl)propane-2-sulfonamide] | 4.1
